BindingDB's records for doi:10.1021/jm060133g (Pfizer, 2006)
Blank lines part the entries; values can stand above or below the compound they belong to.

Columns and labels:
[1] = Inhibition of dog ACE
[2] = target: Neprilysin (Canis familiaris); assay: Inhibition of dog NEP

Structure (SMILES): CCCC(CC1(C(=O)Nc2nnc(CC3CC3)s2)CCCC1)C(=O)O (stereo not given) [2-((1-((5-(cyclopropylmethyl)-1,3,4-thiadiazol-2-yl)carbamoyl)cyclopentyl)methyl)pentanoic acid]
IC50 [1]: > 3000 nM

Structure (SMILES): CCCC(CC1(C(=O)Nc2cn(CC)nn2)CCCC1)C(=O)O (stereo not given) [2-((1-((1-ethyl-1H-1,2,3-triazol-4-yl)carbamoyl)cyclopentyl)methyl)pentanoic acid]
IC50 [1]: > 3000 nM

Structure (SMILES): CCCC(CC1(C(=O)Nc2nnc(-c3ccccc3)s2)CCCC1)C(=O)O (stereo not given) [2-((1-((5-phenyl-1,3,4-thiadiazol-2-yl)carbamoyl)cyclopentyl)methyl)pentanoic acid]
IC50 [1]: > 3000 nM

Structure (SMILES): CCCC(CC1(C(=O)N[C@@H]2CCN(Cc3ccccc3)C2)CCCC1)C(=O)O (stereo partly drawn) [2-((1-(((R)-1-benzylpyrrolidin-3-yl)carbamoyl)cyclopentyl)methyl)pentanoic acid]
IC50 [1]: > 3000 nM | IC50 [2]: 1060 nM

Structure (SMILES): CCCC(CC1(C(=O)Nc2cc(Cc3ccccc3)ccn2)CCCC1)C(=O)O (stereo not given) [2-((1-((4-benzylpyridin-2-yl)carbamoyl)cyclopentyl)methyl)pentanoic acid]
IC50 [1]: > 3000 nM | IC50 [2]: 96 nM

IC50 [2]: 630 nM
Structure (SMILES): CCCC(CC1(C(=O)Nc2cc(C)ccn2)CCCC1)C(=O)O (stereo not given) [2-((1-((4-methylpyridin-2-yl)carbamoyl)cyclopentyl)methyl)pentanoic acid]

IC50 [2]: > 2000 nM
Structure (SMILES): CCCC(CC1(C(=O)Nc2cccc(CC)n2)CCCC1)C(=O)O (stereo not given) [2-((1-((6-ethylpyridin-2-yl)carbamoyl)cyclopentyl)methyl)pentanoic acid]

Structure (SMILES): CCC[C@@H](CC1(C(=O)NC2(CO)Cc3ccccc3C2)CCCC1)C(=O)O [(S)-2-((1-((2-(hydroxymethyl)-2,3-dihydro-1H-inden-2-yl)carbamoyl)cyclopentyl)methyl)pentanoic acid]
IC50 [1]: > 3000 nM

IC50 [2]: > 2000 nM
Structure (SMILES): CCCC(CC1(C(=O)NCCc2ccc(Cl)cc2)CCCC1)C(=O)O (stereo not given) [2-((1-((4-chlorophenethyl)carbamoyl)cyclopentyl)methyl)pentanoic acid]

Structure (SMILES): CCCC(CC1(C(=O)Nc2nnc(Cc3ccccc3)s2)CCCC1)C(=O)O (stereo not given) [2-((1-((5-benzyl-1,3,4-thiadiazol-2-yl)carbamoyl)cyclopentyl)methyl)pentanoic acid]
IC50 [1]: > 3000 nM

Structure (SMILES): CCCC(CC1(C(=O)N[C@H](C)c2ccccc2)CCCC1)C(=O)O (stereo partly drawn) [2-((1-(((R)-1-phenylethyl)carbamoyl)cyclopentyl)methyl)pentanoic acid]
IC50 [1]: > 3000 nM

Structure (SMILES): CCCC(CC1(C(=O)Nc2nncs2)CCCC1)C(=O)O (stereo not given) [2-((1-((1,3,4-thiadiazol-2-yl)carbamoyl)cyclopentyl)methyl)pentanoic acid]
IC50 [1]: > 3000 nM

Structure (SMILES): CCCC(CC1(C(=O)N[C@H](CO)Cc2ccccc2)CCCC1)C(=O)O (stereo partly drawn) [2-((1-(((S)-1-hydroxy-3-phenylpropan-2-yl)carbamoyl)cyclopentyl)methyl)pentanoic acid]
IC50 [1]: > 3000 nM | IC50 [2]: 384 nM

Structure (SMILES): CCC[C@@H](CC1(C(=O)Nc2nnc(CC)s2)CCCC1)C(=O)O [(S)-2-((1-((5-ethyl-1,3,4-thiadiazol-2-yl)carbamoyl)cyclopentyl)methyl)pentanoic acid]
IC50 [1]: > 3000 nM

Structure (SMILES): CCCC(CC1(C(=O)N[C@@H]2CCCC[C@@H]2CCC)CCCC1)C(=O)O (stereo partly drawn) [2-((1-(((1R,2S)-2-propylcyclohexyl)carbamoyl)cyclopentyl)methyl)pentanoic acid]
IC50 [1]: > 3000 nM

Structure (SMILES): CCC[C@@H](CC1(C(=O)Nc2nnc(C)s2)CCCC1)C(=O)O [(S)-2-((1-((5-methyl-1,3,4-thiadiazol-2-yl)carbamoyl)cyclopentyl)methyl)pentanoic acid]
IC50 [1]: > 5000 nM

IC50 [2]: > 3000 nM
Structure (SMILES): CCCC(CC1(NC(=O)c2ccc(=O)n(Cc3ccccc3)c2)CCCC1)C(=O)O (stereo not given) [2-((1-(1-benzyl-2-oxo-1,2-dihydropyridine-5-carboxamido)cyclopentyl)methyl)pentanoic acid]

Structure (SMILES): CCCC(CC1(C(=O)NCc2ccc3c(c2)OCO3)CCCC1)C(=O)O (stereo not given) [2-((1-((benzo[d][1,3]dioxol-5-ylmethyl)carbamoyl)cyclopentyl)methyl)pentanoic acid]
IC50 [1]: > 3000 nM

Structure (SMILES): CCCC(CC1(C(=O)N[C@@H]2CCCC[C@@H]2Cc2ccccc2)CCCC1)C(=O)O (stereo partly drawn) [2-((1-(((1R,2R)-2-benzylcyclohexyl)carbamoyl)cyclopentyl)methyl)pentanoic acid]
IC50 [1]: > 3000 nM | IC50 [2]: 195 nM

Structure (SMILES): CCC[C@H](CC1(C(=O)NC2(CO)Cc3ccccc3C2)CCCC1)C(=O)O [(R)-2-((1-((2-(hydroxymethyl)-2,3-dihydro-1H-inden-2-yl)carbamoyl)cyclopentyl)methyl)pentanoic acid]
IC50 [1]: > 3000 nM

Structure (SMILES): CCCC(CC1(c2nnc(Cc3ccccc3)o2)CCCC1)C(=O)O (stereo not given) [2-((1-(5-benzyl-1,3,4-oxadiazol-2-yl)cyclopentyl)methyl)pentanoic acid]
IC50 [1]: > 3000 nM | IC50 [2]: 3100 nM

Structure (SMILES): CCc1nnc(NC(=O)C2(CCC(=O)O)CCCC2)s1 [3-(1-((5-ethyl-1,3,4-thiadiazol-2-yl)carbamoyl)cyclopentyl)propanoic acid]
IC50 [1]: > 3000 nM | IC50 [2]: 237 nM

Structure (SMILES): CCCCc1ccnc(NC(=O)C2(CC(CCC)C(=O)O)CCCC2)c1 (stereo not given) [2-((1-((4-butylpyridin-2-yl)carbamoyl)cyclopentyl)methyl)pentanoic acid]
IC50 [1]: > 3000 nM | IC50 [2]: 184 nM

Structure (SMILES): CCCC(CC1(C(=O)NC2Cc3ccccc3C2)CCCC1)C(=O)O (stereo not given) [2-((1-((2,3-dihydro-1H-inden-2-yl)carbamoyl)cyclopentyl)methyl)pentanoic acid]
IC50 [1]: > 3000 nM

Structure (SMILES): CCCC(CC1(C(=O)NC2(CO)Cc3ccccc3C2)CCCC1)C(=O)O (racemic) [rac-2-((1-((2-(hydroxymethyl)-2,3-dihydro-1H-inden-2-yl)carbamoyl)cyclopentyl)methyl)pentanoic acid]
IC50 [1]: > 3000 nM

IC50 [2]: 1710 nM
Structure (SMILES): CCCC(CC1(C(=O)Nc2ncccc2CC)CCCC1)C(=O)O (stereo not given) [2-((1-((3-ethylpyridin-2-yl)carbamoyl)cyclopentyl)methyl)pentanoic acid]

Structure (SMILES): CCc1nnc(NC(=O)C2(CC(CCC(C)C)C(=O)O)CCCC2)s1 (stereo not given) [2-((1-((5-ethyl-1,3,4-thiadiazol-2-yl)carbamoyl)cyclopentyl)methyl)-5-methylhexanoic acid]
IC50 [1]: > 3000 nM

Structure (SMILES): CCCC(CC1(c2nnc(-c3ccc(=O)n(Cc4ccccc4)c3)o2)CCCC1)C(=O)O (stereo not given) [2-((1-(5-(1-benzyl-6-oxo-1,6-dihydropyridin-3-yl)-1,3,4-oxadiazol-2-yl)cyclopentyl)methyl)pentanoic acid]
IC50 [1]: > 3000 nM | IC50 [2]: 1140 nM

Structure (SMILES): CCCC(CC1(C(=O)Nc2nnc(CC)s2)CCCC1)C(=O)O (racemic) [rac-2-((1-((5-ethyl-1,3,4-thiadiazol-2-yl)carbamoyl)cyclopentyl)methyl)pentanoic acid]
IC50 [1]: > 3000 nM

Structure (SMILES): CCCC(CC1(C(=O)Nc2ccc(=O)n(Cc3ccccc3)c2)CCCC1)C(=O)O (stereo not given) [2-((1-((1-benzyl-6-oxo-1,6-dihydropyridin-3-yl)carbamoyl)cyclopentyl)methyl)pentanoic acid]
IC50 [1]: > 3000 nM | IC50 [2]: 313 nM

Structure (SMILES): CCCC(CC1(C(=O)N[C@H]2CC[C@@H](C(N)=O)CC2)CCCC1)C(=O)O (stereo partly drawn) [cis-2-((1-((4-carbamoylcyclohexyl)carbamoyl)cyclopentyl)methyl)pentanoic acid]
IC50 [1]: > 3000 nM | IC50 [2]: 150 nM

Structure (SMILES): CCc1nnc(NC(=O)C2(CC(CCc3ccccc3)C(=O)O)CCCC2)s1 (stereo not given) [2-((1-((5-ethyl-1,3,4-thiadiazol-2-yl)carbamoyl)cyclopentyl)methyl)-4-phenylbutanoic acid]
IC50 [1]: > 3000 nM | IC50 [2]: 46 nM

Structure (SMILES): CCCC(CC1(C(=O)NCc2nnc(C)s2)CCCC1)C(=O)O (stereo not given) [2-((1-(((5-methyl-1,3,4-thiadiazol-2-yl)methyl)carbamoyl)cyclopentyl)methyl)pentanoic acid]
IC50 [1]: > 3000 nM

Structure (SMILES): CCCC(CC1(C(=O)N[C@@H]2CC[C@H](C(N)=O)C2)CCCC1)C(=O)O (stereo partly drawn) [2-((1-(((1R,3S)-3-carbamoylcyclopentyl)carbamoyl)cyclopentyl)methyl)pentanoic acid]
IC50 [1]: > 3000 nM | IC50 [2]: 213 nM

Structure (SMILES): CCCC(CC1(C(=O)Nc2nnc(CC(C)C)s2)CCCC1)C(=O)O (stereo not given) [2-((1-((5-isobutyl-1,3,4-thiadiazol-2-yl)carbamoyl)cyclopentyl)methyl)pentanoic acid]
IC50 [1]: > 3000 nM | IC50 [2]: 124 nM

Structure (SMILES): CCCCC(CC1(C(=O)Nc2nnc(CC)s2)CCCC1)C(=O)O (stereo not given) [2-((1-((5-ethyl-1,3,4-thiadiazol-2-yl)carbamoyl)cyclopentyl)methyl)hexanoic acid]
IC50 [1]: > 3000 nM

Structure (SMILES): CCCC(CC1(C(=O)Nc2ccccn2)CCCC1)C(=O)O (stereo not given) [2-((1-(pyridin-2-ylcarbamoyl)cyclopentyl)methyl)pentanoic acid]
IC50 [1]: > 3000 nM

Structure (SMILES): CCCNc1ccnc(NC(=O)C2(CC(CCC)C(=O)O)CCCC2)n1 (stereo not given) [2-((1-((4-(propylamino)pyrimidin-2-yl)carbamoyl)cyclopentyl)methyl)pentanoic acid]
IC50 [1]: > 3000 nM | IC50 [2]: > 2000 nM

Structure (SMILES): CCCC(CC1(C(=O)Nc2ccc(OC)nn2)CCCC1)C(=O)O (stereo not given) [2-((1-((6-methoxypyridazin-3-yl)carbamoyl)cyclopentyl)methyl)pentanoic acid]
IC50 [1]: > 3000 nM

Structure (SMILES): CCCC(CC1(C(=O)NC2CCCC(C(=O)N(C)C)C2)CCCC1)C(=O)O (stereo not given) [2-((1-((3-(dimethylcarbamoyl)cyclohexyl)carbamoyl)cyclopentyl)methyl)pentanoic acid]
IC50 [1]: > 3000 nM

Structure (SMILES): CCCC(CC1(C(=O)Nc2nnc(C)s2)CCCC1)C(=O)O (racemic) [rac-2-((1-((5-methyl-1,3,4-thiadiazol-2-yl)carbamoyl)cyclopentyl)methyl)pentanoic acid]
IC50 [1]: > 3000 nM

Structure (SMILES): CCCC(CC1(C(=O)NC2(CO)CCCC2)CCCC1)C(=O)O (stereo not given) [2-((1-((1-(hydroxymethyl)cyclopentyl)carbamoyl)cyclopentyl)methyl)pentanoic acid]
IC50 [1]: > 3000 nM | IC50 [2]: 1710 nM

Structure (SMILES): CCC[C@H](CC1(C(=O)Nc2nnc(CC)s2)CCCC1)C(=O)O [(R)-2-((1-((5-ethyl-1,3,4-thiadiazol-2-yl)carbamoyl)cyclopentyl)methyl)pentanoic acid]
IC50 [1]: > 3000 nM

Structure (SMILES): CCC[C@H](CC1(C(=O)Nc2nnc(C)s2)CCCC1)C(=O)O [(R)-2-((1-((5-methyl-1,3,4-thiadiazol-2-yl)carbamoyl)cyclopentyl)methyl)pentanoic acid]
IC50 [1]: > 3000 nM

Structure (SMILES): CCCC(CC1(C(=O)N[C@H]2CC[C@@H](C(=O)N(C)C)CC2)CCCC1)C(=O)O (stereo partly drawn) [cis-2-((1-((4-(dimethylcarbamoyl)cyclohexyl)carbamoyl)cyclopentyl)methyl)pentanoic acid]
IC50 [1]: > 3000 nM
